{"source": "ChEMBL document CHEMBL1201862", "about": "“PubChem BioAssay data set” (2004)", "key": {"Cytochrome P450 2C9": {"molecular_target": "Cytochrome P450 2C9 (Homo sapiens, UniProt P11712)", "sequence (P11712 whole entry)": "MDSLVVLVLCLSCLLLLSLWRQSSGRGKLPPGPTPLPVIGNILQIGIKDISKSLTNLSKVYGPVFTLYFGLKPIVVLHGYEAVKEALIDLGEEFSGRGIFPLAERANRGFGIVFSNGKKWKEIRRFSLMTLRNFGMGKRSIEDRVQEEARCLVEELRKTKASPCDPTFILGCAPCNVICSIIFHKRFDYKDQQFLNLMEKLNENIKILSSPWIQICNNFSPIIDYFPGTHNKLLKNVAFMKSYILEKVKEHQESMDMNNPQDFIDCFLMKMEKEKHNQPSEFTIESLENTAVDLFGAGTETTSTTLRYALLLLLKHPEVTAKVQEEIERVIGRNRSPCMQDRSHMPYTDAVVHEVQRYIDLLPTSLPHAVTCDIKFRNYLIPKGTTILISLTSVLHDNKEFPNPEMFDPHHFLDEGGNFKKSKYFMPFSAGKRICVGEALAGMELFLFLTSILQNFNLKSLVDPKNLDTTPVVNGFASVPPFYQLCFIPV"}, "Cytochrome P450 1A2": {"molecular_target": "T1, Cytochrome P450 1A2 (Homo sapiens, UniProt P05177)", "T1 sequence (P05177 whole entry)": "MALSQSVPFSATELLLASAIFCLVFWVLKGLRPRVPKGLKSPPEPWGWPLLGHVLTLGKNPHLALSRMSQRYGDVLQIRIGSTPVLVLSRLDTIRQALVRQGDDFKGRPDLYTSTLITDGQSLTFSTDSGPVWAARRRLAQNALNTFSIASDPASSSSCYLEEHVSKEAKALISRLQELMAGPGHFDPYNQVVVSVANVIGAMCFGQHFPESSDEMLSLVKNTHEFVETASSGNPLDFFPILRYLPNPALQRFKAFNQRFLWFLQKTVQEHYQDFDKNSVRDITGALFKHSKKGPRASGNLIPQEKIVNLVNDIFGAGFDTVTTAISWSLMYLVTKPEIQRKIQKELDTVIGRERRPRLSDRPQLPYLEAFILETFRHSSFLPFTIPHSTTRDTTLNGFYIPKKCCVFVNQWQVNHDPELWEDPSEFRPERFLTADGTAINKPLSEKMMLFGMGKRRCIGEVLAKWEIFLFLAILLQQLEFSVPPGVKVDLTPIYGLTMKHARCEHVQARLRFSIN"}, "Cytochrome P450 2C19": {"molecular_target": "Cytochrome P450 2C19 (Homo sapiens, UniProt P33261)", "sequence (P33261 whole entry)": "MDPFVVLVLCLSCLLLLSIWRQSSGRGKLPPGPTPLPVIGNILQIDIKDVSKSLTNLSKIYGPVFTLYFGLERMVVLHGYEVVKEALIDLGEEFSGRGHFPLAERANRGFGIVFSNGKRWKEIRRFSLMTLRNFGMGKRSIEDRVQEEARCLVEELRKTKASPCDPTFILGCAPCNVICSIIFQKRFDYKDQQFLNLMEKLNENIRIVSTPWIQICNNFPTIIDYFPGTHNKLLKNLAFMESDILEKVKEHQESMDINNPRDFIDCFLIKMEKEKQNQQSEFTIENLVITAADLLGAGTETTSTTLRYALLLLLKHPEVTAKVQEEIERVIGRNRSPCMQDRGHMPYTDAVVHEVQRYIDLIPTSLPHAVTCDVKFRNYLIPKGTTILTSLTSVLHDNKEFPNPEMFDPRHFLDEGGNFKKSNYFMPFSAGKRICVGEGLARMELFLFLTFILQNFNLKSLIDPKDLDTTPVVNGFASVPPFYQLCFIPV", "assay": "Cytochrome panel assay with activity outcomes. Panel member name: p450-cyp2c19 Compounds with AC50 equal or less than 10 uM are considered active", "assay_type": "functional"}, "H4": {"test_system": "H4", "assay": "Luminescence Cell-Based Dose Response HTS to Identify Activators of 5'UTR Stem-Loop Driven Prion Protein mRNA Translation in H4 Neuroglioblastoma Cells. [Related pubchem assays: 1829 (Project Summary), 1814 (Primary HTS)]", "assay_type": "functional", "settings": "Homo sapiens"}, "[1]": {"assay": "Luminescence Cell-Based Dose Response HTS to Identify Activators of Luciferase Translation or Activity in H4 […] Cells. [Related pubchem assays: 1829 (Project Summary), 1814 (Primary HTS)]", "assay_type": "functional"}, "[2]": {"assay": "Luminescence Cell-Based Dose Confirmation HTS to Identify Activators of 5'UTR Stem-Loop Driven Alpha-Synuclein mRNA Translation in H4 Neuroglioblastoma Cells. [Related pubchem assays: 1829 (Project Summary), 1814 (Primary HTS)]", "assay_type": "functional"}, "[3]": {"molecular_target": "T2, Polyadenylate-binding protein 1 (Homo sapiens, UniProt P11940)", "T2 sequence (P11940 whole entry)": "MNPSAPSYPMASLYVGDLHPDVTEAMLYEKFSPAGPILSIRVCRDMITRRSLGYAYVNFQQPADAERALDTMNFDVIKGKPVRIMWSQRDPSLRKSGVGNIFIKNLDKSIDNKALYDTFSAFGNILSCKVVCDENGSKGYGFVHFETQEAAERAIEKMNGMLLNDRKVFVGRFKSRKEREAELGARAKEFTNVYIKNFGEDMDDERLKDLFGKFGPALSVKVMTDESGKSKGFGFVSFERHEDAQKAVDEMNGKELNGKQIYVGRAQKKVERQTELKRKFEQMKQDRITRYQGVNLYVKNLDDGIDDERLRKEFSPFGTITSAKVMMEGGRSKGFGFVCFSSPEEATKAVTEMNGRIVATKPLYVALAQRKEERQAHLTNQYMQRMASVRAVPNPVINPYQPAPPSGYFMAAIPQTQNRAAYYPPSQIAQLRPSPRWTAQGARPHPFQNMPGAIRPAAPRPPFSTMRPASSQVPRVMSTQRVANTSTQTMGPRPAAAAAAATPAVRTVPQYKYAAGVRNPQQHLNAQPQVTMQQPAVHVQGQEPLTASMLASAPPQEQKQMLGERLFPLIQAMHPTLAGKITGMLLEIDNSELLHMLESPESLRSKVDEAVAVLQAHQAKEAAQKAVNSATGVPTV", "assay": "PABP1 MLLE–PAM2 interaction inhibitors, dose response, miRNA deadenylation inhibitor project, biochemical, fluorescence polarization, Cy5-PAM2 peptide, secondary (AID 602260)", "assay_type": "functional", "settings": "read-out: IC50_Mean"}, "[4]": {"molecular_target": "T2, Polyadenylate-binding protein 1", "assay": "PABP1 MLLE–PAM2 binding inhibitor potency, dose response, biochemical, fluorescence polarization, FITC-PAM2 peptide (AID 602259)", "assay_type": "functional", "settings": "read-out: IC50_Mean"}, "[5]": {"molecular_target": "T3, Heat shock factor protein 1 (Mus musculus, UniProt P38532)", "T3 sequence (P38532 whole entry)": "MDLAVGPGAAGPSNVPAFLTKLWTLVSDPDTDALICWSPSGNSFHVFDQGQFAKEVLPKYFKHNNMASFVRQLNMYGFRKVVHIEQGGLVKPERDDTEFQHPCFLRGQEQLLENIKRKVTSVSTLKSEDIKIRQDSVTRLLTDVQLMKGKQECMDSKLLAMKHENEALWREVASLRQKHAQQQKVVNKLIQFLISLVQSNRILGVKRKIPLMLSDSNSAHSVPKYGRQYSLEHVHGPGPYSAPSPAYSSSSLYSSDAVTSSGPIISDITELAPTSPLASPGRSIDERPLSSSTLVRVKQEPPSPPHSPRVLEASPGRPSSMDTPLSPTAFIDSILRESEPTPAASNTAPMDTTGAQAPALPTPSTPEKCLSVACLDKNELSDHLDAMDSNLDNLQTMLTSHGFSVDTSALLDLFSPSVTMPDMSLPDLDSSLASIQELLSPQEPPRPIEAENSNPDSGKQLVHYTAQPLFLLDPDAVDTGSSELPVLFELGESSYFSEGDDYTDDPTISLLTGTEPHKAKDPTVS", "assay": "HSF1 potentiators in luciferase reporter cells, confirmation, cell-based, NIH3T3, luminescence, dose retest (AID 435004);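 note: stress induced by proteasome inhibitor MG132 added 30 min after compound; actives raise luminescence as potentiators of the MG132 stress response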", "assay_type": "functional"}, "Cytochrome P450 3A4": {"molecular_target": "Cytochrome P450 3A4 (Homo sapiens, UniProt P08684)", "sequence (P08684 whole entry)": "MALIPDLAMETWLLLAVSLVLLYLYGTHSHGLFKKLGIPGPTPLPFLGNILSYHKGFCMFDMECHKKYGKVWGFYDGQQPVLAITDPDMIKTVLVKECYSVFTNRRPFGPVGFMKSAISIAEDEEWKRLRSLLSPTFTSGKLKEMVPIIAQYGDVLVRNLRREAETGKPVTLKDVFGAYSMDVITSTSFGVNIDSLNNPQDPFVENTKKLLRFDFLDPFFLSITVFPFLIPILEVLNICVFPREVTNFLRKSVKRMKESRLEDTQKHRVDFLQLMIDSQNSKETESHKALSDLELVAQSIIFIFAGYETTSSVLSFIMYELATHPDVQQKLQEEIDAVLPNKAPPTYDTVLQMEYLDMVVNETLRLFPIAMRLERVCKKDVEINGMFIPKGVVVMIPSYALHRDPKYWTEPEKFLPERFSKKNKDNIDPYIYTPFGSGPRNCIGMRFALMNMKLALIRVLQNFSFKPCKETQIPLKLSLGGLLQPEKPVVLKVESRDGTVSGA"}}, "note": "The source made the active and inactive calls."}
{"compound": "CCOc1ccc(-n2ccnc2SCC(=O)Nc2nnc(C)s2)cc1", "values": [{"measurement": "AC50", "setting": "Cytochrome P450 2C9", "result": "11.2 µM (inconclusive)"}, {"measurement": "AC50", "setting": "Cytochrome P450 1A2", "result": "25.1 µM (inconclusive)"}]}
{"compound": "COc1cccc(Nc2ncc3nc(-c4ccccc4)c(=O)n(C4CC4)c3n2)c1", "values": [{"measurement": "AC50", "setting": "Cytochrome P450 2C9", "result": "10 µM (inconclusive)"}]}
{"compound": "COCCn1c(=O)c(-c2cccc(C#N)c2)nc2cnc(OCc3ccccc3)nc21", "values": [{"measurement": "AC50", "setting": "Cytochrome P450 1A2", "result": "12.6 µM (inconclusive)"}, {"measurement": "AC50", "setting": "Cytochrome P450 2C19", "result": "inconclusive"}]}
{"compound": "O=C(OCc1nc2ccccc2s1)C1CCN(C2=NS(=O)(=O)c3ccccc32)CC1", "values": [{"measurement": "EC50", "setting": "H4", "result": "21.9 µM (active)"}, {"measurement": "EC50", "setting": "[1]", "result": "24.8 µM (active)"}, {"measurement": "EC50", "setting": "[2]", "result": "24 µM (active)"}]}
{"compound": "O=C(CCCc1ccccc1)N1CCN(C2CCCCC2)CC1", "values": [{"measurement": "EC50", "setting": "H4", "result": "42.8 µM (active)"}, {"measurement": "EC50", "setting": "[1]", "result": "13.7 µM (active)"}, {"measurement": "EC50", "setting": "[2]", "result": "13.5 µM (active)"}]}
{"compound": "Clc1ccccc1CSc1ncn(-c2ccccc2)n1", "values": [{"measurement": "EC50", "setting": "H4", "result": "36.9 µM (active)"}, {"measurement": "EC50", "setting": "[1]", "result": "0.42 µM (active)"}, {"measurement": "EC50", "setting": "[2]", "result": "0.191 µM (active)"}]}
{"compound": "O=C(NC(=S)Nc1ccccc1N1CCCCC1)c1ccco1", "values": [{"measurement": "IC50", "setting": "[3]", "result": "> 66 µM (inactive)"}, {"measurement": "IC50", "setting": "[4]", "result": "> 66 µM (inactive)"}]}
{"compound": "COC(=O)c1cc(OC)c(OC)cc1NC(=S)NC(=O)c1ccco1", "values": [{"measurement": "EC50", "setting": "[5]", "result": "28.2 µM (active)"}]}
{"compound": "CC1(C)CC(=O)C2=C(C1)N(c1ccc(F)cc1)C(N)=C(C#N)C2c1cccs1", "note": "(stereo unspecified)", "values": [{"measurement": "AC50", "setting": "Cytochrome P450 2C9", "result": "10 µM (inconclusive)"}, {"measurement": "AC50", "setting": "Cytochrome P450 2C19; read-out: AC50", "result": "39.8 µM (inconclusive)"}]}
{"compound": "COc1ccc(NCc2nnc(SCC(=O)c3ccc(OC)cc3)n2C)cc1", "values": [{"measurement": "EC50", "setting": "H4", "result": "> 120 µM (not active)"}, {"measurement": "EC50", "setting": "[1]", "result": "> 120 µM (not active)"}, {"measurement": "EC50", "setting": "[2]", "result": "> 120 µM (not active)"}]}
{"compound": "Cc1cc(C)c(C#N)c(Oc2ccccc2)n1", "values": [{"measurement": "AC50", "setting": "Cytochrome P450 2C19; read-out: AC50", "result": "11.2 µM (inconclusive)"}]}
{"compound": "O=C(Cn1cnc2c(oc3ccccc32)c1=O)c1ccccc1", "values": [{"measurement": "EC50", "setting": "H4", "result": "> 120 µM (not active)"}, {"measurement": "EC50", "setting": "[1]", "result": "29.6 µM (active)"}, {"measurement": "EC50", "setting": "[2]", "result": "104 µM (active)"}]}
{"compound": "Cn1sc(NC(=O)c2ccccc2Cl)nc1=O", "values": [{"measurement": "AC50", "setting": "Cytochrome P450 2C9", "result": "17.8 µM (inconclusive)"}]}
{"compound": "COc1ccc(C(=O)NC(C)c2cc(OC)c(OC)cc2Br)cc1", "note": "(stereo unspecified)", "values": [{"measurement": "AC50", "setting": "Cytochrome P450 2C19; read-out: AC50", "result": "39.8 µM (inconclusive)"}]}
{"compound": "CC(C)Sc1nc(NCc2ccco2)c2c3c(sc2n1)COC(C)(C)C3", "values": [{"measurement": "EC50", "setting": "H4", "result": "8.39 µM (active)"}, {"measurement": "EC50", "setting": "[1]", "result": "17.2 µM (active)"}, {"measurement": "EC50", "setting": "[2]", "result": "14.6 µM (active)"}]}
{"compound": "CC1(C)C(=O)C(c2ccccc2)=C2CN3C(=O)N(CCc4ccccc4)C(=O)C3(Cc3ccccc3)C=C21", "note": "(stereo unspecified)", "values": [{"measurement": "AC50", "setting": "Cytochrome P450 2C9", "result": "12.6 µM (inconclusive)"}, {"measurement": "AC50", "setting": "Cytochrome P450 1A2", "result": "6.31 µM (inconclusive)"}]}
{"compound": "CCOC(=O)N1CCN(C(=O)CNS(=O)(=O)c2cccs2)CC1", "values": [{"measurement": "AC50", "setting": "Cytochrome P450 2C9", "result": "3.98 µM (inconclusive)"}, {"measurement": "AC50", "setting": "Cytochrome P450 3A4", "result": "14.1 µM (inconclusive)"}]}
{"compound": "O=C(c1ccncc1)N1CCC2(CC1)CCN(c1ccccc1)CC2", "values": [{"measurement": "AC50", "setting": "Cytochrome P450 2C19; read-out: AC50", "result": "39.8 µM (inconclusive)"}]}
{"compound": "CC1(C)O[C@@H]2C[C@H]3[C@H]4C[C@H](F)C5=CC(=O)C=C[C@@]5(C)[C@@H]4[C@H](O)C[C@]3(C)[C@]2(C(=O)CO)O1", "values": [{"measurement": "AC50", "setting": "Cytochrome P450 2C19", "result": "inconclusive"}, {"measurement": "AC50", "setting": "Cytochrome P450 3A4", "result": "12.6 µM (inconclusive)"}]}
{"compound": "CC1CCN(C(=O)Cn2nnc(-c3cccs3)n2)CC1", "values": [{"measurement": "EC50", "setting": "H4", "result": "23.4 µM (active)"}, {"measurement": "EC50", "setting": "[1]", "result": "59.7 µM (active)"}, {"measurement": "EC50", "setting": "[2]", "result": "4.67 µM (active)"}]}
